Values quoted from earlier work in patent publication US20150290439A1, “METHODS FOR BILATERAL CENTRAL AUTONOMIC NEUROMODULATION” (priority 2014, published 2015).

Assays:
[1] = not given; remark: listed apart in the source
[2] = reason for discontinuation
[3] = molecular target: calcitonin gene-related peptide receptor (Homo sapiens, UniProt O60894+Q16602)
Chain of calcitonin gene-related peptide receptor (Q16602 23-461): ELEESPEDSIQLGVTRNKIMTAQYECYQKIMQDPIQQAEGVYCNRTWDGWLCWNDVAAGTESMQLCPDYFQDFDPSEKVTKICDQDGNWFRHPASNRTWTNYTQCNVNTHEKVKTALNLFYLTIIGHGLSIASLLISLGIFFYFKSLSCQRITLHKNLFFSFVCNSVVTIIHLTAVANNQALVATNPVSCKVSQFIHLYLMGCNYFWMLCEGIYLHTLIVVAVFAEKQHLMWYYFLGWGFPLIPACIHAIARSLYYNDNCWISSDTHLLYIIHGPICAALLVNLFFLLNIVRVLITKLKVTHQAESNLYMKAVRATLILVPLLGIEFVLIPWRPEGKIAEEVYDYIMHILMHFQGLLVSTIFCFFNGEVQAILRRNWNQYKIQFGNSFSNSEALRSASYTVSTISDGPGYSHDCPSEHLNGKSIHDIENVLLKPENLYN
Chain of calcitonin gene-related peptide receptor (O60894 27-148): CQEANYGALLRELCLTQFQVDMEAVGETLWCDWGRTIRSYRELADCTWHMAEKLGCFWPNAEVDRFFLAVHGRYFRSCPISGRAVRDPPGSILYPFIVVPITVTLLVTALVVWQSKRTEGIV

## Cc1cc(C[C@@H](OC(=O)N2CCC(N3CCc4ccccc4NC3=O)CC2)C(=O)N2CCC(N3CCOCC3)CC2)cc(C)c1O [BI44370A]
other
  efficacy in Phase 2 clinical study: efficacy demonstrated

## N[C@@H]1c2cccnc2[C@H](OC(=O)N2CCC(n3c(=O)[nH]c4ncccc43)CC2)CC[C@H]1c1cccc(F)c1F [BMS-927711]
[1]; 600 mg
  efficacy of the highest tested dose: no additional benefit over the doses of 75 mg and 150 mg
[1]; Phase 2b, acute migraine
  secondary endpoints versus placebo: most (and sometimes all) doses were superior to placebo
[1]; acute dosing
  tolerability: placebo-like
[1]; all doses, compared with sumatriptan, study not powered for direct comparisons
  primary efficacy endpoint: proportion of pain-free subjects at 2 hours post dose: numerically inferior to sumatriptan
[1]; doses up to 300 mg
  efficacy as a function of dose: increased up to the dose of 75 mg when a plateau effect seemed to have been reached for doses between 75 mg and 300 mg
[1]; in the trial
  serious adverse events: No serious adverse event was reported
[1]; most effective doses
  photophobia and phonophobia: significantly improved
  secondary endpoints versus sumatriptan: numerically superior to sumatriptan
[1]; single dose
  efficacy of a single dose: has been demonstrated

## O=C(CN1C(=O)C2(CCCC2)NC[C@H]1c1cc(F)cc(F)c1)Nc1ccc2c(c1)C[C@@]1(C2)C(=O)Nc2ncccc21 [MK-3207]
[2]
  liver toxicity: concerns of liver toxicity
[3]
  potency relative to telcagepant: significantly more potent than telcagepant

## O=C(N[C@@H]1CC[C@@H](c2cccc(F)c2F)CN(CC(F)(F)F)C1=O)N1CCC(n2c(=O)[nH]c3ncccc32)CC1 [Telcagepant]
[2]
  liver toxicity: concerns of liver toxicity after frequent use
